# Experimental data: patent publication US12503485B2, “Human aminosterol ENT-03 compounds, related compositions comprising the same, and methods of using the same” (Enterin, Inc., priority 2019, dated 2025)
# Where “and” joins values, the source holds several entries; their conditions need not be identical. Equal values may be shown once. Read-outs that look alike come from different tables or passages of the source.
# Key:
# PTPN1/PTP1B = target: T1, PTPN1/PTP1B (Homo sapiens, UniProt P18031); assay: Phosphatase profiling PTPN1/PTP1B, 10-dose IC50, fluorescence; format: biochemical
# T1 construct: The enzyme was the human truncated form (1-321), recombinantly produced in Escherichia coli; host or cells: Escherichia coli
# T1 sequence (P18031 1-321): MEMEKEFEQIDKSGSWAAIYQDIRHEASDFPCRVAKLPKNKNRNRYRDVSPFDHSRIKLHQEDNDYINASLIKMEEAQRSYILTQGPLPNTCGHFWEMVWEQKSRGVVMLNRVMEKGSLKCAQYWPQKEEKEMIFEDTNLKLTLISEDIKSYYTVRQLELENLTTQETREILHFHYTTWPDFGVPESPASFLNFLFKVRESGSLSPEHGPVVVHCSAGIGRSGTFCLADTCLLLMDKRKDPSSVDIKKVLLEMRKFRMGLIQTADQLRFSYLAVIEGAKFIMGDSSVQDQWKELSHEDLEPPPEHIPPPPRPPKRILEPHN
# PTPN7/LC-PTP = target: T2, PTPN7/LC-PTP (Homo sapiens, UniProt P35236); assay: Phosphatase assay PTPN7/LC-PTP; format: biochemical
# T2 construct: purchased Recation Biology Inc
# T2 sequence (P35236 whole entry): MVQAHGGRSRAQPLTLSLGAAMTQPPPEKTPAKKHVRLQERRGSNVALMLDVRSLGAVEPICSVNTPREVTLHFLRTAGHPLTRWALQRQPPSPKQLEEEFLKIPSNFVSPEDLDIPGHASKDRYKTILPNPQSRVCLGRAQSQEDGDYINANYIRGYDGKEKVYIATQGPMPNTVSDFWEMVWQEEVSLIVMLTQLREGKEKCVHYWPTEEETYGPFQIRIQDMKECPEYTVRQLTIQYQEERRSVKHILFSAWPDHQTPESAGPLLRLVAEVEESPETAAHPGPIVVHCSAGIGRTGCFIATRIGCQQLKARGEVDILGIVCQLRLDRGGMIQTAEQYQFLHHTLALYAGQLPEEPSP
# PTPN11/SHP2 = PTPN11/SHP2 (Homo sapiens, UniProt Q06124); assay: Phosphatase assay PTPN11/SHP2; format: biochemical; conditions: Table 2C; read-out: Compound IC50 (M) PTPN11/SHP2
# Sequence of PTPN11/SHP2 (Q06124 whole entry): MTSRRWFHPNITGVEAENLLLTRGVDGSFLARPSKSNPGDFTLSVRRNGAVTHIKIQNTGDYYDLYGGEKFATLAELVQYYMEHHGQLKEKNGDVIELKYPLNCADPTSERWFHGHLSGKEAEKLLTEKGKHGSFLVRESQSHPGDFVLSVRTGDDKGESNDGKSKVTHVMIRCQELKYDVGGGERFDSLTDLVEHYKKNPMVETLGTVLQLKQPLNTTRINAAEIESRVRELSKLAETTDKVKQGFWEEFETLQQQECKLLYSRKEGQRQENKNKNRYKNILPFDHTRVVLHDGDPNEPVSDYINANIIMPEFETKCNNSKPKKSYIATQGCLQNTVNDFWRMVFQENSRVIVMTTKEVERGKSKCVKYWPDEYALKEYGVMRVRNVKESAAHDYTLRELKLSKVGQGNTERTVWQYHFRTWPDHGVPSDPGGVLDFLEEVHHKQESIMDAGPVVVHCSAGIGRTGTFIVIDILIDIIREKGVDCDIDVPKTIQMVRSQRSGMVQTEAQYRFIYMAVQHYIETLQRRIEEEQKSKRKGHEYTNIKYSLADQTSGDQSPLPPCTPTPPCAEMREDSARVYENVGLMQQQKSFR
# [1] = Weight loss in C57bl/6 male mice, once weekly dosing; format: in vivo
# [2] = system: transcriptomes of the stomach, jejunum and ileum; format: in vivo, mice
# Method: Young (20 week) and aged (80 week) C57bl/6 male mice were administered ENT-03 (40 mg/kg) or vehicle (water) by oral gavage daily for 2 weeks. Over this period of time clinical observations were unremarkable as were the gross and microscopic examinations of the GI tract. The transcriptomes of the stomach, jejunum and ileum were analyzed by RNAseq technology. Comparative analyses of the transcripts from untreated animals identified numerous transcripts that differed in abundance between the corresponding tissues from old and young individuals. […] Thus, within these three distinct regions of the mouse GI tract, ageing is associated with changes in the transcriptome.
# Statistical analysis of RNA-sequencing data was performed using R programming language. Transcripts with less than one read count per million reads in all samples of each tissue were removed. The raw count data for the samples were then normalised using trimmed mean of M-values normalisation and transformed with voom (Law et al., 2014), resulting in log 2-transformed counts per million with associated precision weights. […] Statistical comparisons were performed using linear modelling, as implemented in the Bioconductor package limma (Ritchie et al., 2015). Significance values (p-values) were adjusted for multiple testing using Benjamini-Hochberg procedure (Benjamini et al., 1995). For each comparison (e.g. group A versus group B), a positive log 2-transformed fold change indicates up-regulation in group A relative to group B.
# To investigate the overlap between contrasts, the number of overlapping differentially expressed genes (defined using adjusted p-value <0.05) between all pairwise combinations of the comparisons performed were counted. For each comparison, the Jaccard index, defined as the intersection over the union, measures the similarity between the two contrasts under consideration. The p-value was calculated using a hypergeometric test taking into account the universe size under the assumption that the contrasts and genes are independent.
# [3] = Pharmacokinetic study, intravenous administration in male SD rats; format: in vivo; conditions: rat plasma, I.V. 5 mg/kg
# Method: The objective of this example was to determine the pharmacokinetic profile of ENT-03 (Compound III) via intravenous and oral administration in male SD Rats.
# Animal feeding control: Animals were food fasted overnight prior to dosing and fed 4 hours after administration having free access to water.
# PK Sample Analyses: Concentrations of ENT-03 (Compound III) in the plasma and dose samples were analyzed using a LC-MS/MS method. WinNonlin (Phoenix™, version 6.1) or other similar software was used for pharmacokinetic calculations. The following pharmacokinetic parameters were calculated, whenever possible from the plasma concentration versus time data.
# IV Bolus administration: T1/2, C0, AUClast, AUCinf, MRTinf, Cl, Vss, Number of Points for Regression.
# Xenopus leavis tadpole = assay: In vivo activity on Xenopus tadpole in water; conditions: 10 μg/ml in 500 ml distilled water, about 1 hour
# Method: To assess the activity of ENT-05 in vivo, the compound was added to 500 ml of distilled water to a concentration of 10 μg/ml. A Xenopus leavis tadpole, premetamorphic, was placed into the solution. […] A second animal was placed in 500 ml of water, containing 10 μg/ml ENT-05, but also 50 mM NaCl. In this case, the animal survived. The animal was then transferred to spring water without either salt or ENT-05 and remained active over the following days.
# [4] = Body weight of mice after i.p. deuterated ENT-03; format: in vivo
# From the text: The presence of the deuterium on the side chain likely slows the action of the 2-methylacyl-coenzyme A racemase on C-25, the subsequent action of the dehydrogenase that produces the 24,25-trans-unsaturated derivative by removing the deuterium atoms at C24 and C25, and the subsequent hydration and oxidation at the C24 bond catalyzed by the D-bifunctional protein. Instead, the metabolism of ENT-03D3 will begin with the oxidation at C24 by CYP46A1, yielding the following compound: […]
# [5] = intraperitoneal 3, 5, 10 mg/kg once weekly over 2 weeks
# [6] = intraperitoneal once weekly over 6 weeks
# [7] = individual animals Rat 1-3, listed as ENT-03 (Compound III), 5 mg/kg
compound,measurement,setting,value
"CC(C)[C@@H](CC[C@@H](C)[C@H]1CC[C@H]2[C@@H]3[C@H](O)C[C@H]4C[C@@H](NCCCNCCCCNCCCN)CC[C@]4(C)[C@H]3CC[C@]12C)OS(=O)(=O)O (single isomer, unassigned) [ENT-02, trodusquemine]",% Activity,PTPN1/PTP1B; Conc 1.00E−04 M,−0.16%
same,Slope (signal/min),PTPN1/PTP1B; Conc 1.00E−04 M,−68 signal/min
same,% Activity,PTPN1/PTP1B; Conc 1.11E−05 M,0.68%
same,Slope (signal/min),PTPN1/PTP1B; Conc 1.11E−05 M,292 signal/min
same,% Activity,PTPN1/PTP1B; Conc 1.23E−06 M,86.43%
same,Slope (signal/min),PTPN1/PTP1B; Conc 1.23E−06 M,37260 signal/min
same,% Activity,PTPN1/PTP1B; Conc 1.37E−07 M,93.11%
same,Slope (signal/min),PTPN1/PTP1B; Conc 1.37E−07 M,40137 signal/min
same,% Activity,PTPN1/PTP1B; Conc 1.52E−08 M,102.11%
same,Slope (signal/min),PTPN1/PTP1B; Conc 1.52E−08 M,44021 signal/min
same,% Activity,PTPN1/PTP1B; Conc 3.33E−05 M,−1.02%
same,Slope (signal/min),PTPN1/PTP1B; Conc 3.33E−05 M,−440 signal/min
same,% Activity,PTPN1/PTP1B; Conc 3.70E−06 M,38.12%
same,Slope (signal/min),PTPN1/PTP1B; Conc 3.70E−06 M,16431 signal/min
same,% Activity,PTPN1/PTP1B; Conc 4.12E−07 M,92.69%
same,Slope (signal/min),PTPN1/PTP1B; Conc 4.12E−07 M,39959 signal/min
same,% Activity,PTPN1/PTP1B; Conc 4.57E−08 M,99.09%
same,Slope (signal/min),PTPN1/PTP1B; Conc 4.57E−08 M,42717 signal/min
same,% Activity,PTPN1/PTP1B; Conc 5.08E−09 M,100.94%
same,Slope (signal/min),PTPN1/PTP1B; Conc 5.08E−09 M,43513 signal/min
same,HILLSLOPE,PTPN1/PTP1B; IC50 curve fit,−2.19
same,"activity on PTPN7/LC-PTP, in words",PTPN7/LC-PTP,target
same,IC50,PTPN11/SHP2,3.75e-07 M
"CC(CCCC(C)C1CCC2C3C(O)CC4CC(NCCCNCCCCNCCCN)CCC4(C)C3CCC12C)C(=O)O (single isomer, unassigned; ent-03) [ENT-03, 3-β-Spermino-7α-hydroxy-5α-cholestanoic acid]",clinical appearance of treated animals,[1]; [5],clinically normal
same,"weight loss, in words",[1]; [5],dose dependent weight loss
same,clinical appearance of treated animals,[1]; [6],clinically normal
same,"weight loss, in words",[1]; [6],dose dependent weight loss
same,number of differentially expressed genes,"[2]; ileum, treated aged mice",1162 genes
same,number of differentially expressed genes,"[2]; ileum, treated young mice",80 genes
same,genes changed significantly in response to exposure,"[2]; jejunum and ileum, both young and aged mice",no more than 2 genes
same,number of differentially expressed genes,"[2]; jejunum, treated aged mice",382 genes
same,number of differentially expressed genes,"[2]; jejunum, treated young mice",42 genes
same,Ageing genes complemented by ENT-03 (30 most significant) Stomach,"[2]; stomach, aged mice, gene named in value",shadow of prion protein
same,genes down-regulated in ageing overlapping with genes up-regulated by treatment,"[2]; stomach, old mice, P<0.0001 hypergeometric test",37 genes
same,number of differentially expressed genes,"[2]; stomach, treated aged mice, 40 mg/kg oral daily 2 weeks, p(adj)<0.05",63 genes
same,number of differentially expressed genes,"[2]; stomach, treated young (20 week) mice, 40 mg/kg oral daily 2 weeks, p(adj)<0.05",13 genes
same,ageing genes further down regulated in the ageing direction by treatment,"[2]; stomach, young mice",12 genes
same,clinical observations and gross and microscopic examinations of the GI tract,"[2]; young and aged C57bl/6 male mice, 40 mg/kg oral gavage daily 2 weeks",unremarkable
same,AUClInf,[3]; Mean of 3 male SD rats,986.457 µg·h/mL
same,AUClast,[3]; Mean of 3 male SD rats,609.005 µg·h/mL
same,AUC—%Extrap—obs,[3]; Mean of 3 male SD rats,38.2%
same,C0,[3]; Mean of 3 male SD rats,86.337 µg/mL
same,Cl_obs,[3]; Mean of 3 male SD rats,5.1 mL/h/kg
same,MRTInf—obs,[3]; Mean of 3 male SD rats,24.6 h
same,T1/2,[3]; Mean of 3 male SD rats,18.2 h
same,Vss—obs,[3]; Mean of 3 male SD rats,0.125 L/kg
same,AUClInf,[3]; [7],922.477 µg·h/mL and 941.13 µg·h/mL and 1095.763 µg·h/mL
same,AUClast,[3]; [7],557.542 µg·h/mL and 608.321 µg·h/mL and 661.154 µg·h/mL
same,AUC—%Extrap—obs,[3]; [7],39.6% and 35.4% and 39.7%
same,C0,[3]; [7],80.402 µg/mL and 102.409 µg/mL and 76.2 µg/mL
same,Cl_obs,[3]; [7],5.42 mL/h/kg and 5.31 mL/h/kg and 4.57 mL/h/kg
same,MRTInf—obs,[3]; [7],25.3 h and 22.9 h and 25.5 h
same,T1/2,[3]; [7],18.6 h (2×) and 17.5 h
same,Vss—obs,[3]; [7],0.137 L/kg and 0.122 L/kg and 0.116 L/kg
same,effect on tadpole,Xenopus leavis tadpole,No similar effect
same,"effect on body weight, in words",[4],loss of weight
